Structures are written as SMILES.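 Results reflect a 48-hour exposure of cells in 96-well plates to compound at five concentrations. Here, GI50 denotes the concentration required for 50% inhibition of growth.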 Calls of active or inactive are those of the source. Rule as the data show it: active = GI50 up to about 1.1 µM and inactive = higher.

We go through 13 compounds from ChEMBL document CHEMBL1201862, “PubChem BioAssay data set” (2004).

Test systems include HL-60; Malme-3M; SF-268; K562; NCI-H460; UACC-62; SF-295; M19-MEL; SF-539; OVCAR-3; ACHN; HCT-116; CCRF-CEM; SK-MEL-2; UACC-257; NCI-H226; MDA-N; DU-145; Hs-578T; BT-549.
Common to all, as to assay: growth of human tumour cells (NCI), 48 h

As for `CC1=NN(C(=O)c2ccc(Cl)cc2)C(=O)/C1=C/c1cccc([N+](=O)[O-])c1`, the GI50 with HL-60, with Malme-3M, in the assay on SF-268, in the assay on K562, in the assay with NCI-H460 and in the assay on UACC-62 was > 100 µM (inactive) each time. In addition, the GI50 in the assay on SF-295, in the assay with M19-MEL, with SF-539, with OVCAR-3, in the assay with ACHN and with HCT-116 was > 100 µM (inactive) in each case. Further, the GI50 in the assay on CCRF-CEM, with SK-MEL-2 and with UACC-257 was > 100 µM (inactive) in each case.
For the compound `CN1C(=N\S(=O)(=O)c2ccc(Cl)cc2)/C(=N/N=P(c2ccccc2)(c2ccccc2)c2ccccc2)c2ccccc21`, the GI50 with Malme-3M is > 100 µM (inactive); in the assay on NCI-H226, 73.3 µM (inactive); with SF-268, > 100 µM (inactive); in the assay on K562, > 100 µM (inactive); with NCI-H460, > 100 µM (inactive); in the assay with UACC-62, > 100 µM (inactive). For the same compound, the GI50 in the assay with SF-295, with M19-MEL, with SF-539, in the assay with OVCAR-3, in the assay on ACHN and in the assay with HCT-116 was > 100 µM (inactive) in each case. Further, the GI50 in the assay on CCRF-CEM, in the assay with SK-MEL-2 and with UACC-257 was > 100 µM (inactive) in each case.
Regarding `OC1C[C@H](c2ccccc2)C2(C(O)c3ccccc3C2O)[C@@H](c2ccccc2)C1` (some centres not stated), the GI50 with HL-60 is 27.9 µM (inactive); in the assay with Malme-3M, > 100 µM (inactive); in the assay with NCI-H226, > 100 µM (inactive); in the assay on MDA-N, > 100 µM (inactive); in the assay with DU-145 it was > 100 µM (inactive); with SF-268, > 100 µM (inactive). Besides, the GI50 with K562, with NCI-H460, in the assay on Hs-578T, with UACC-62, in the assay with SF-295 and in the assay on SF-539 was > 100 µM (inactive) each time. Also, the GI50 in the assay with OVCAR-3 was > 100 µM (inactive); with ACHN, > 100 µM (inactive); in the assay with HCT-116, > 100 µM (inactive); in the assay with BT-549, > 100 µM (inactive); with CCRF-CEM it was 99.1 µM (inactive); in the assay on SK-MEL-2, > 100 µM (inactive). In the assay on UACC-257, the GI50 was 32.2 µM (inactive).
Regarding `Cc1ccc2c(c1)C1C(CO2)C(c2ccccc2)=NN1c1ccccc1` (configuration not stated), the GI50 is 72.3 µM (inactive) in the assay on HL-60; > 100 µM (inactive) with Malme-3M; > 100 µM (inactive) with SF-268; > 100 µM (inactive) in the assay with K562; > 100 µM (inactive) with NCI-H460; > 100 µM (inactive) in the assay with SF-295. The GI50 in the assay on M19-MEL, in the assay on SF-539, with OVCAR-3, with ACHN, in the assay with HCT-116 and in the assay on CCRF-CEM was > 100 µM (inactive) throughout. The GI50 in the assay with SK-MEL-2 and in the assay with UACC-257 was > 100 µM (inactive) in each case.
For the compound `O=[N+]([O-])c1cccc2nccc(NCCCO)c12`, the GI50 in the assay on HL-60 was 11.6 µM (inactive); with Malme-3M, 10.2 µM (inactive); with NCI-H226, 23 µM (inactive); in the assay on MDA-N it was 9.66 µM (inactive); with DU-145, 16.8 µM (inactive); in the assay with SF-268 it was 11.6 µM (inactive). In addition, the GI50 in the assay on K562 is 13.2 µM (inactive); in the assay with NCI-H460 it was 11 µM (inactive); in the assay on Hs-578T, 13.1 µM (inactive); in the assay with UACC-62, 8.57 µM (inactive); in the assay with SF-295, 15.5 µM (inactive); with SF-539 it was 14.5 µM (inactive). For the same compound, the GI50 with OVCAR-3 was 14.6 µM (inactive); in the assay on ACHN, 14.3 µM (inactive); in the assay on HCT-116 it was 13 µM (inactive); in the assay on BT-549, 8.93 µM (inactive); with CCRF-CEM, 14.7 µM (inactive); in the assay on SK-MEL-2, 4.38 µM (inactive). Moreover, the GI50 in the assay with UACC-257 is 11.4 µM (inactive).
As for `CCOC(=O)C1=C(c2ccccc2)C12N(Cc1ccccc1)C(=O)C2(c1ccccc1)c1ccccc1` (configuration not stated), the GI50 in the assay on HL-60 was 34.9 µM (inactive); with Malme-3M, 93.8 µM (inactive); in the assay with NCI-H226, 26.3 µM (inactive); in the assay with MDA-N, 25.5 µM (inactive); with DU-145 it was 75 µM (inactive); in the assay with SF-268, > 100 µM (inactive). Further, the GI50 was 16.5 µM (inactive) with K562; 28.2 µM (inactive) in the assay with NCI-H460; 36.9 µM (inactive) in the assay on Hs-578T; 39.5 µM (inactive) in the assay on UACC-62; 41.5 µM (inactive) with SF-295; 45.1 µM (inactive) with SF-539. The GI50 in the assay on OVCAR-3 was 33.8 µM (inactive); in the assay on ACHN, 37.7 µM (inactive); in the assay on HCT-116 it was 36.4 µM (inactive); in the assay on BT-549, 24.8 µM (inactive); with CCRF-CEM, 25.8 µM (inactive); with SK-MEL-2, 24 µM (inactive). In the assay with UACC-257, the GI50 was 34.7 µM (inactive).
Take `C=CCNC(=O)C(C)C1CCC2(C)C=CC(=O)C(C)=C2C1O` (configuration not stated): the GI50 with HL-60, in the assay with NCI-H226, in the assay with SF-268, with K562, with NCI-H460 and in the assay with UACC-62 was > 100 µM (inactive) in each case. Also, the GI50 with SF-295, with M19-MEL, in the assay on SF-539, with OVCAR-3, in the assay on HCT-116 and with CCRF-CEM was > 100 µM (inactive) in each case. Further, the GI50 in the assay with SK-MEL-2 and with UACC-257 was > 100 µM (inactive) in each case.
For `[O-]c1on[n+]2c1c(Nc1ccc(Cl)cc1)nc1ccccc12`, the GI50 in the assay with HL-60, with SF-268, with K562, in the assay with NCI-H460, in the assay on UACC-62 and in the assay on SF-295 was > 100 µM (inactive) throughout. Moreover, the GI50 in the assay with M19-MEL, in the assay on SF-539, in the assay with OVCAR-3, in the assay with ACHN, in the assay with HCT-116 and in the assay with CCRF-CEM was > 100 µM (inactive) throughout. Also, in the assay on UACC-257, the GI50 was > 100 µM (inactive).
Turning to `CCCC(=O)Nc1cc(C(=O)N2C[C@H]3C[C@@]34C2=CC(=O)c2[nH]cc(C)c24)n(COC)c1`, the GI50 in the assay with HL-60 is 0.045 µM (active); in the assay on Malme-3M it was 0.105 µM (active); in the assay with NCI-H226 it was 0.475 µM (active); with MDA-N it was 0.582 µM (active); with DU-145, 0.116 µM (active); in the assay with SF-268, 0.103 µM (active). Besides, the GI50 with K562 is 0.131 µM (active); in the assay with NCI-H460 it was 0.317 µM (active); in the assay on Hs-578T, 0.512 µM (active); with UACC-62 it was 0.195 µM (active); in the assay with SF-295 it was 0.735 µM (active); in the assay with SF-539 it was 0.177 µM (active). The GI50 in the assay on OVCAR-3 was 0.0853 µM (active); with ACHN it was 0.197 µM (active); in the assay on HCT-116 it was 0.182 µM (active); in the assay on BT-549, 0.253 µM (active); in the assay on CCRF-CEM, 0.014 µM (active); in the assay with SK-MEL-2, 0.293 µM (active). The GI50 in the assay on UACC-257 is 0.171 µM (active).
`COC(=O)Cc1cc(=O)n2c([nH]c3ccccc32)c1C#N`: the GI50 with HL-60 was > 100 µM (inactive); with Malme-3M it was 81.3 µM (inactive); with NCI-H226, > 100 µM (inactive); in the assay on SF-268, > 100 µM (inactive); with K562, > 100 µM (inactive); in the assay with NCI-H460, 35.9 µM (inactive). Moreover, the GI50 with SF-295 is > 100 µM (inactive); in the assay with M19-MEL it was > 100 µM (inactive); in the assay on SF-539, > 100 µM (inactive); in the assay with OVCAR-3, > 100 µM (inactive); in the assay on ACHN, 63.1 µM (inactive); in the assay with HCT-116, > 100 µM (inactive). Also, the GI50 in the assay on SK-MEL-2 and in the assay with UACC-257 was > 100 µM (inactive) throughout.
`Cc1cc(Cl)ccc1NC(=O)CCCC(=O)C(C(=O)c1ccccc1)c1ccccc1` (configuration not stated): the GI50 in the assay with HL-60, with Malme-3M, in the assay with SF-268, with K562, in the assay on NCI-H460 and in the assay on UACC-62 was > 100 µM (inactive) in each case. Moreover, the GI50 with SF-295, in the assay on M19-MEL, in the assay on OVCAR-3, with ACHN, in the assay on CCRF-CEM and in the assay with SK-MEL-2 was > 100 µM (inactive) in each case. The GI50 with UACC-257 is > 100 µM (inactive).
As to `COc1ccc(CCNCc2cccc(OC)c2OC)cc1OC`, the GI50 with HL-60, in the assay on Malme-3M, in the assay on SF-268, with K562, with NCI-H460 and in the assay on UACC-62 was > 100 µM (inactive) in each case. Also, the GI50 with SF-295, in the assay with M19-MEL, in the assay with OVCAR-3, in the assay with ACHN, with CCRF-CEM and in the assay on SK-MEL-2 was > 100 µM (inactive) in each case. Further, the GI50 in the assay with UACC-257 was > 100 µM (inactive).
For the compound `COc1ccc(NC(=O)CSc2nnc(Cc3ccccc3)o2)cc1`, the GI50 is > 100 µM (inactive) in the assay with Malme-3M; > 100 µM (inactive) in the assay with NCI-H226; 88.1 µM (inactive) with SF-268; > 100 µM (inactive) in the assay on K562; > 100 µM (inactive) in the assay on NCI-H460; > 100 µM (inactive) with UACC-62. Besides, the GI50 with SF-295 was 55.6 µM (inactive); in the assay with M19-MEL, 82.6 µM (inactive); in the assay with SF-539, > 100 µM (inactive); in the assay on OVCAR-3 it was 78.3 µM (inactive); with ACHN, > 100 µM (inactive); in the assay with HCT-116 it was > 100 µM (inactive). The values for the GI50 with CCRF-CEM, with SK-MEL-2 and in the assay with UACC-257 were 82.2 µM (inactive), > 100 µM (inactive) and > 100 µM (inactive), respectively.
